Reference: patent US11773421B2, “Method for producing fructose-6-phosphate from dihydroxy acetone phosphate and glyceraldehyde-3-phosphate” (Global Bioenergies, priority 2018, dated 2023)

Assays:
[1] = target: fructose bisphosphatase (Escherichia coli, UniProt P0A993); experiment: Impact of AMP concentration on fructose bisphosphatase activity; assay type: biochemical; conditions: AMP several concentrations; 1 mM F1,6bisP, 0.2 mg/ml FBP enzyme, 30° C., NADPH formation at 340 nm; FIG. 1
Procedure: (§1) A series of tests was conducted in order to determine if AMP has an inhibitory effect on the enzymatic activity of fructose-6-phosphate aldolase and/or fructose bisphosphatase. […] Chem Cat Chem, Wiley, 7:1871-1879 (2015).

[2] = target: T1, FsaA A129S (Escherichia coli, UniProt P78055, A129S); experiment: Impact of AMP concentration on fructose-6-phosphate aldolase activity of FsaA A129S; assay type: biochemical, E. coli; conditions: AMP several concentrations; 200 mM DHA, 3 mM D,L-G3P, 0.4 mg/ml FsaA A129S, 30° C., NADPH formation at 340 nm; FIG. 2
T1 construct: made in house; host or cells: E. coli BL21(DE3), ASKA collection plasmid
T1 sequence (P78055 whole entry A129S): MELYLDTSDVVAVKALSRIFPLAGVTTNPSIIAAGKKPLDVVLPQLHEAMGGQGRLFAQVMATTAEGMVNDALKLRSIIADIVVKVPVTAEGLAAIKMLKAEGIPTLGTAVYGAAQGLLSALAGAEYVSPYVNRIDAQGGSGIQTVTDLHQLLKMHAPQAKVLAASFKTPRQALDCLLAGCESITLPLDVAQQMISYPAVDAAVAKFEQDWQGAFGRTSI
Procedure: as §1

fructose bisphosphatase, sequence (P0A993 whole entry): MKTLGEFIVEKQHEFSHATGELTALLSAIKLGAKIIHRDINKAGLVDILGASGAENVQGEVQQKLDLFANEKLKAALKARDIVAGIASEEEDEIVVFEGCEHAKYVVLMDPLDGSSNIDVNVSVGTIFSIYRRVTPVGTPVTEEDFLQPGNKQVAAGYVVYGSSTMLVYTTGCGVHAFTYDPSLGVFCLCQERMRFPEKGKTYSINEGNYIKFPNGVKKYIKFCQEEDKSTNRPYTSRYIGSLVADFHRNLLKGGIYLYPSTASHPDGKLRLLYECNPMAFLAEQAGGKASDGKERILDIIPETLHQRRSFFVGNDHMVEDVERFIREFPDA

SMILES: Nc1ncnc2c1ncn2[C@@H]1O[C@H](COP(=O)(O)O)[C@@H](O)[C@H]1O [AMP]
- impact of AMP on fructose bisphosphatase activity [1]: strong inhibitory impact
- inhibitory effect of AMP on fructose-6-phosphate aldolase activity [2]: No inhibitory effect
